Reference: US10251932B2, “Preparations containing amorphous emodepside” (Bayer Intellectual Property GmbH, priority 2011, dated 2019)
≈ marks a conversion by molar mass, not a printed value.

Assay: Solubility of emodepside in water
Type: physicochemical
Details: range of pH 4-10

Compound: CC(C)CC1C(=O)OC(Cc2ccc(N3CCOCC3)cc2)C(=O)N(C)C(CC(C)C)C(=O)OC(C)C(=O)N(C)C(CC(C)C)C(=O)OC(Cc2ccc(N3CCOCC3)cc2)C(=O)N(C)C(CC(C)C)C(=O)OC(C)C(=O)N1C [Emodepside, cyclo[(R)-lactoyl-N-methyl-1-leucyl-(R)-3-(p-morpholinophenyl)lactoyl-N-methyl-1-leucyl-(R)-lactoyl-N-methyl-1-leucyl-(R)-3-(p-morpholinophenyl)lactoyl-N-methyl-1-leucyl]
- solubility: 5 to 7 µg/mL (≈ 4.47 to 6.25 µM)
